What all share (type): cell-based
For one series, the system named is L428, MDR + HL. The series can be described thus: In vitro assays - tubulysin free drugs, CellTiter-Glo growth inhibition. To be noted: Homo sapiens, L-428, 96 h, Table 2; free drug, 96 hour exposure. The procedure:
(§1) In vitro assays. Cells cultured in log-phase growth were seeded for 24 h in 96-well plates containing 150 μL RPMI 1640 supplemented with 20% FBS. Serial dilutions of antibody-drug conjugates in cell culture media were prepared at 4× working concentrations; 50 μL of each dilution was added to the 96-well plates. Following addition of ADC, cells were incubated with test articles for 4 d at 37° C. After 96 h, growth inhibition was assessed by CellTiter-Glo® (Promega, Madison, WI) and luminescence was measured on a plate reader. The IC50 value, determined in triplicate, is defined here as the concentration that results in a 50% reduction in cell growth relative to untreated controls.
(§2) In vitro assays—tubulysin free drugs. Cells were treated for 96 hours with tubulysin ether analogs (40-42) or tubulysin M (7), then assessed for viability as described in the methods.
(§3) The tubulysin ester analogs (133-137) and unsaturated ether analogs (176-179) were tested in vitro for potency relative to tubulysin M (7), following a 96 hour exposure. As shown by IC50 values (nM) of Table 2, Tubulysin esters 133-136 performed comparably to tubulysin M, with similar potencies across of the cell lines.
(Cellular ATP, detected with luciferase, serves as a proxy for viable cell number.)

The test system of another series is Karpas299, ALCL. Described as above. To be noted: Homo sapiens, KARPAS-299, 96 h, Table 2; free drug, 96 hour exposure. The procedure: as §1, §2, §3
The test system of series [1] is Karpas299, L540cy, L428, HL60, HL60/RV cell lines. The series can be described thus: In vitro assays - tubulysin free drugs, statements across the cell line panel. Particulars: Table 2 cell lines, 96 hour exposure. The method, then:
as §1, §2
The ethyl ether and tubulysin M maintained the highest level of potency in the context of MDR+L428 and HL60/RV cell lines.
as §3

For a further series, the system named is HL60/RV, MDR + AML. The series can be described thus: In vitro assays - tubulysin free drugs, CellTiter-Glo growth inhibition. To be noted: Homo sapiens, HL-60, 96 h, 96 hour exposure. The procedure: as §1, §2, §3
(§4) A series of analogues of the ethyl ether tubulysin compound TubOEt (41) were synthesized on solid phase lanterns that maintain the ethyl ether substitution, while either varying the residue at the Ile position (203-215) or the Mep position (216-221). Following cleavage from the solid phase, the analogues were obtained in >85% purity and tested without further purification. The compounds were tested in vitro for potency relative to a sample of TubOEt synthesized in parallel on a lantern (41-lantern), following a 96 hour exposure, with IC5O values expressed in nM (Table 3). While in many cases an attenuation in activity was observed relative to 41-lantern, some well-tolerated substitutions were found. […] While this stereochemical preference is not observed when Ile is replaced with O-methyl threonine (207) or O-methyl allothreonine (206), bulkier substituents led to a greater differentiation. […] Replacement of the Mep residue was generally less-well tolerated.

The test system of a further series is HL60, AML. The description is as above. Particulars: Homo sapiens, HL-60, 96 h, 96 hour exposure. The method, then:
as §1, §2, §3, §4

The next series has as its system L540cy, HL. Described as above. Particulars: L540cy, 96 h, 96 hour exposure. The procedure:
as §1, §2, §3, §4

For series [2], the system named is HepG2, L540cy, Ramos, U266, HL60, HL60/RV cell lines. The series can be described thus: In vitro assays - TubOEt analogues, statements across the cell line panel. Particulars: Table 3 cell lines, 96 hour exposure. The procedure:
as §1, §4

A further series has as its system HepG2, HCC. As to the kind of experiment: In vitro assays - TubOEt analogues, CellTiter-Glo growth inhibition. Particulars: Homo sapiens, Table 3, lantern-made analogues >85% purity, 96 hour exposure. The method, then: as §1, §4
The next series concerns Ramos, NHL. The series is described as above. To be noted: Homo sapiens, Table 3, lantern-made analogues >85% purity, 96 hour exposure. The procedure:
as §1, §4

In a further series the test system is U266 MM. The description is as above. Particulars: Homo sapiens, U-266; Table 3; lantern-made analogues >85% purity, 96 hour exposure. The procedure:
as §1, §4

The mark [3] stands for this setting: Table 3, lantern-made analogues >85% purity.

The structures appear in SMILES notation.

Consider nine compounds from patent US11793880B2, “Conjugates of quaternized tubulysin compounds” (Seagen Inc., priority 2015, dated 2023).

The term IC50 denotes the midpoint of a concentration-inhibition curve.

For `CC[C@H](C)[C@H](NC(=O)[C@H]1CCCCN1C)C(=O)N(C)[C@H](C[C@@H](OC(=O)CC(C)(C)C)c1nc(C(=O)N[C@@H](Cc2ccccc2)C[C@H](C)C(=O)O)cs1)C(C)C` [Compound 137, (2S,4R)-4-(2-((1R,3R)-3-((2S,3S)—N,3-dimethyl-2-((R)-1-methylpiperidine-2-carboxamido)pentanamido)-1-((3,3-dimethylbutanoyl)oxy)-4-methylpentyl)thiazole-4-carboxamido)-2-methyl-5-phenylpentanoic acid], the IC50 is 0.93 nM with L428, MDR + HL; 0.18 nM in the series on Karpas299, ALCL; 47 nM in the series on HL60/RV, MDR + AML (Table 2, free drug); 0.7 nM with HL60, AML (Table 2, free drug); 0.7 nM in the series with L540cy, HL (Table 2, free drug). Besides, the “potency relative to tubulysin M (7), in words” value in series [1] was “reduced potency”.

As for `CCO[C@H](C[C@H](C(C)C)N(C)C(=O)[C@@H](NC(=O)[C@H]1CCCCN1C)C1CCOCC1)c1nc(C(=O)N[C@@H](Cc2ccccc2)C[C@H](C)C(=O)O)cs1` [Compound 210, (2S,4R)-4-(2-((1R,3R)-1-ethoxy-4-methyl-3-((S)—N-methyl-2-((R)-1-methylpiperidine-2-carboxamido)-2-(tetrahydro-2H-pyran-4-yl)acetamido)pentyl)thiazole-4-carboxamido)-2-methyl-5-phenylpentanoic acid], in series [2], the “potency / cytotoxicity of TubOEt analogues, in words” value was “inactive against all cell lines tested”. Also, the IC50 with HL60/RV, MDR + AML (setting [3]) was more than 1000 nM; with HL60, AML (setting [3]), more than 1000 nM; in the series on L540cy, HL (setting [3]), more than 1000 nM; in the series with HepG2, HCC, more than 1000 nM; in the series with Ramos, NHL, more than 1000 nM; in the series with U266 MM it was more than 1000 nM.

For `CC[C@H](C)[C@H](NC(=O)[C@H]1CCCCN1C)C(=O)N(C)[C@H](C[C@@H](OCc1ccccc1)c1nc(C(=O)N[C@@H](Cc2ccccc2)C[C@H](C)C(=O)O)cs1)C(C)C` [Compound 179, (2S,4R)-4-(2-((1R,3R)-1-(benzyloxy)-3-((2S,3S)—N,3-dimethyl-2-((R)-1-methylpiperidine-2-carboxamido)pentanamido)-4-methylpentyl)thiazole-4-carboxamido)-2-methyl-5-phenylpentanoic acid], the IC50 in the series on L428, MDR + HL is 0.57 nM; with Karpas299, ALCL, 0.08 nM; with HL60/RV, MDR + AML (Table 2, free drug) it was 24 nM; in the series on HL60, AML (Table 2, free drug), 0.4 nM; in the series on L540cy, HL (Table 2, free drug), 0.4 nM. The “potency relative to tubulysin M (7), in words” value in series [1] is “attenuated in potency”.

Consider `CCO[C@H](C[C@H](C(C)C)N(C)C(=O)[C@@H](NC(=O)[C@H]1CCCCN1C)C1CCCC1)c1nc(C(=O)N[C@@H](Cc2ccccc2)C[C@H](C)C(=O)O)cs1` [Compound 204, (2S,4R)-4-(2-((1R,3R)-3-((S)-2-cyclopentyl-N-methyl-2-((R)-1-methylpiperidine-2-carboxamido)acetamido)-1-ethoxy-4-methylpentyl)thiazole-4-carboxamido)-2-methyl-5-phenylpentanoic acid], for which, in [2], the “potency / cytotoxicity of TubOEt analogues, in words” value is reported as “potent”. Moreover, the IC50 with HL60/RV, MDR + AML (setting [3]) was 40 nM; in the series on HL60, AML (setting [3]), 1 nM; in the series on L540cy, HL (setting [3]), 0.4 nM; in the series on HepG2, HCC, 2 nM; in the series on Ramos, NHL it was 0.2 nM; in the series on U266 MM it was 0.1 nM.

`CCO[C@H](C[C@H](C(C)C)N(C)C(=O)[C@@H](NC(=O)[C@H]1CCCCN1C)C1CCCCC1)c1nc(C(=O)N[C@@H](Cc2ccccc2)C[C@H](C)C(=O)O)cs1` [Compound 205, (2S,4R)-4-(2-((1R,3R)-3-((S)-2-cyclohexyl-N-methyl-2-((R)-1-methylpiperidine-2-carboxamido)acetamido)-1-ethoxy-4-methylpentyl)thiazole-4-carboxamido)-2-methyl-5-phenylpentanoic acid]: the “potency / cytotoxicity of TubOEt analogues, in words” value in series [2] is “potent”. Also, the IC50 in the series on HL60/RV, MDR + AML (setting [3]) was 177 nM; with HL60, AML (setting [3]), 2 nM; in the series with L540cy, HL (setting [3]), 1 nM; in the series with HepG2, HCC, 7 nM; in the series with Ramos, NHL, 0.5 nM; in the series with U266 MM it was 0.5 nM.

On to `CCO[C@H](C[C@H](C(C)C)N(C)C(=O)[C@@H](NC(=O)[C@H]1CCCCN1C)[C@@H](C)OC(C)(C)C)c1nc(C(=O)N[C@@H](Cc2ccccc2)C[C@H](C)C(=O)O)cs1` [Compound 215, (2S,4R)-4-(2-((1R,3R)-3-((2S,3R)-3-(tert-butoxy)-N-methyl-2-((R)-1-methylpiperidine-2-carboxamido)butanamido)-1-ethoxy-4-methylpentyl)thiazole-4-carboxamido)-2-methyl-5-phenylpentanoic acid], for which, in [2], the “potency / cytotoxicity of TubOEt analogues, in words” value is “significantly more potent”. Moreover, the IC50 with HL60/RV, MDR + AML (setting [3]) came to 33 nM; in the series on HL60, AML (setting [3]) it was 1 nM; in the series with L540cy, HL (setting [3]) it was 0.2 nM; with HepG2, HCC it was 1 nM; with Ramos, NHL it was 0.2 nM; with U266 MM it was 0.1 nM.

Turning to `CCO[C@H](C[C@H](C(C)C)N(C)C(=O)[C@@H](NC(=O)C1CCC(F)(F)CN1C)[C@@H](C)CC)c1nc(C(=O)N[C@@H](Cc2ccccc2)C[C@H](C)C(=O)O)cs1` (stereo partly drawn) [Compound 216, (2S,4R)-4-(2-((1R,3R)-3-((2S,3S)-2-(5,5-difluoro-1-methylpiperidine-2-carboxamido)-N,3-dimethylpentanamido)-1-ethoxy-4-methylpentyl)thiazole-4-carboxamido)-2-methyl-5-phenylpentanoic acid], the “potency / cytotoxicity of TubOEt analogues, in words” value in [2] was “decrease in the observed cytotoxicity”. Further, the IC50 is more than 1000 nM in the series on HL60/RV, MDR + AML (setting [3]); 61 nM in the series on HL60, AML (setting [3]); 12 nM in the series with L540cy, HL (setting [3]); 58 nM in the series on HepG2, HCC; 10 nM in the series on Ramos, NHL; 9 nM in the series on U266 MM.

In the case of `CCO[C@H](C[C@H](C(C)C)N(C)C(=O)[C@@H](NC(=O)C12CC(CCN1C)C2)[C@@H](C)CC)c1nc(C(=O)N[C@@H](Cc2ccccc2)C[C@H](C)C(=O)O)cs1` [Compound 217, (2S,4R)-4-(2-((1R,3R)-3-((2S,3S)—N,3-dimethyl-2-(2-methyl-2-azabicyclo[3.1.1]heptane-1-carboxamido)pentanamido)-1-ethoxy-4-methylpentyl)thiazole-4-carboxamido)-2-methyl-5-phenylpentanoic acid], the “potency / cytotoxicity of TubOEt analogues, in words” value in series [2] is listed as “most potent compounds obtained in this series”. In addition, the IC50 with HL60/RV, MDR + AML (setting [3]) is 244 nM; in the series on HL60, AML (setting [3]) it was 4 nM; with L540cy, HL (setting [3]), 1 nM; in the series on HepG2, HCC, 2 nM; in the series with Ramos, NHL, 0.4 nM; with U266 MM, 0.4 nM.

On to `CCO[C@H](C[C@H](C(C)C)N(C)C(=O)[C@@H](NC(=O)[C@@]1(C)CCCN1C)[C@@H](C)CC)c1nc(C(=O)N[C@@H](Cc2ccccc2)C[C@H](C)C(=O)O)cs1` [Compound 221, (2S,4R)-4-(2-((1R,3R)-3-((2S,3S)-2-((R)-1,2-dimethylpyrrolidine-2-carboxamido)-N,3-dimethylpentanamido)-1-ethoxy-4-methylpentyl)thiazole-4-carboxamido)-2-methyl-5-phenylpentanoic acid], for which, in series [2], the “potency / cytotoxicity of TubOEt analogues, in words” value is recorded as “most potent compounds obtained in this series”. In addition, the IC50 in the series with HL60/RV, MDR + AML (setting [3]) was 522 nM; in the series on HL60, AML (setting [3]), 12 nM; in the series on L540cy, HL (setting [3]) it was 1 nM; in the series on HepG2, HCC, 4 nM; with Ramos, NHL it was 1 nM; with U266 MM, 2 nM.
